According to US9376694B2, “Method for preparing optically active amino acid using cosubstrate shuttling of transaminase” (INDUSTRY-ACADEMIC COOPERATION FOUNDATION, YONSEI UNIVERSITY, priority 2012, dated 2016):
“And” between values parts separate entries of the source, which are not always exact repeats. Equal values may be shown once.

Legend:
[1] = biological target: T1, branched-chain transaminase (Escherichia coli, UniProt P0AB80); assay: Substrate specificity of purified branched-chain transaminase for amino acids with trimethylpyruvate; type: biochemical, E. coli; settings: purified enzyme (6 U/mL); 20 mM trimethylpyruvate, 20 mM L-amino acid, pH 7.0, 37° C., 6 hours
T1 construct: made in house; host or cells: E. coli BL21(DE3)
T1 sequence (P0AB80 whole entry): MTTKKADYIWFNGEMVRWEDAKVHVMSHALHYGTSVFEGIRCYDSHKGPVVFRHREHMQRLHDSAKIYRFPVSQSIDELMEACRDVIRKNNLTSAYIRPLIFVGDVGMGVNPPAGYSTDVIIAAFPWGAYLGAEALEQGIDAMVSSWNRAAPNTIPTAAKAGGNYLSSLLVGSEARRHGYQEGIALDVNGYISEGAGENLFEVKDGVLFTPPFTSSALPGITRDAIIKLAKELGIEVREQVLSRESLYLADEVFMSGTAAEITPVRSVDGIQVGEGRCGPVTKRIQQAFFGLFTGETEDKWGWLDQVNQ
Experimental: Reaction was conducted using the branched-chain transaminase purified in Example 3 and using various L-amino acids and trimethylpyruvate as substrates as described in [Table 4]. After adding 10 μL of the purified enzyme (6 U/mL) to 100 μL of a mixture of 20 mM trimethylpyruvate, 20 mM L-amino acid and 50 mM potassium phosphate (pH 7.0), reaction was conducted at 37° C. for 6 hours and the amount of produced L-tert-leucine was measured. The result is shown in [Table 4].

[2] = test system: ω-transaminase derived from Paracoccus denitrificans (PdwTA); assay: Substrate specificity of purified ω-transaminase for amino acids (glyoxylate acceptor), PdwTA; type: biochemical; settings: purified enzyme (5 U/mL); 20 mM glyoxylate, 20 mM L-amino acid, pH 7.0, 37° C., 6 hours; reaction conducted 3 times
Experimental: (§1) Reaction was conducted using the ω-transaminase purified in Example 3 and using various L-amino acids and […] as substrates as described in [Table 5]. After adding 10 μL of the purified enzyme (5 U/mL) to 100 μL of a mixture of 20 mM glyoxylate, 20 mM L-amino acid and 50 mM potassium phosphate (pH 7.0), reaction was conducted at 37° C. for 6 hours and the amount of produced L-glycine was measured. The reaction was conducted 3 times and the result was compared with that of the ω-transaminase derived from Ochrobactrum anthropi. The result is shown in [Table 5].

[3] = test system: ω-transaminase derived from Ochrobactrum anthropi; assay: Substrate specificity of purified ω-transaminase for amino acids (glyoxylate acceptor), OawTA; type: biochemical; settings: 20 mM glyoxylate, 20 mM L-amino acid, pH 7.0, 37° C., 6 hours
Experimental: as §1

[4] = biological target: T1, branched-chain transaminase; assay: Substrate specificity of purified branched-chain transaminase for keto acids; type: biochemical, E. coli; settings: for Concentration of 2-oxobutyrate: purified enzyme (1 U/mL), 20 mM L-homoalanine, 20 mM keto acid, pH 7.0, 37° C., 7 hours
Experimental: Reaction was conducted using the branched-chain transaminase purified in Example 3 and using various L-amino acids and keto acids described in [Table 3] as substrates. After adding 10 μL of the purified enzyme (1 U/mL) to 100 μL of a mixture of 20 mM L-homoalanine, 20 mM keto acid and 50 mM potassium phosphate (pH 7.0), reaction was conducted at 37° C. for 7 hours and the amount of produced 2-oxobutyrate (keto acid of L-homoalanine) was measured. The result is shown in [Table 3].
When trimethylpyruvate and L-homoalanine were used as substrates, the equilibrium constant of the reaction by the branched-chain transaminase was very low at 0.16.

[5] = test system: ω-transaminase derived from Ochrobactrum anthropi; assay: Substrate specificity of purified ω-transaminase for keto acids, OawTA; type: biochemical; settings: 20 mM keto acid, 20 mM (S)-α-methylbenzylamine, pH 7.0, 37° C., 6 hours
Experimental: (§2) Reaction was conducted using the ω-transaminase purified in Example 3 and using various keto acids and amine as substrates as described in [Table 6]. After adding 10 μL of the purified enzyme (6 U/mL) to 100 μL of a mixture of 20 mM keto acid, 20 mM (S)-α-methylbenzylamine and 50 mM potassium phosphate (pH 7.0), reaction was conducted at 37° C. for 6 hours and the amount of produced acetophenone (deaminated ketone of (S)-α-methylbenzylamine) was measured. The result was compared with that of the ω-transaminase derived from Ochrobactrum anthropi. The result is shown in [Table 6].

[6] = test system: ω-transaminase derived from Paracoccus denitrificans (PdwTA); assay: Substrate specificity of purified ω-transaminase for keto acids, PdwTA; type: biochemical; settings: purified enzyme (6 U/mL); 20 mM keto acid, 20 mM (S)-α-methylbenzylamine, pH 7.0, 37° C., 6 hours
Experimental: as §2

[7] = test system: ω-transaminase derived from Paracoccus denitrificans (PdwTA); assay: Substrate specificity of purified ω-transaminase for keto acids in initial stage of reaction, PdwTA; type: biochemical; design: unit not given here; settings: purified enzyme (1 U/mL); 20 mM keto acid, 20 mM (S)-α-methylbenzylamine, pH 7.0, 37° C., 10 minutes
Experimental: (§3) Reaction was conducted using the ω-transaminase purified in Example 3 and using various keto acids and amine as substrates as described in [Table 7]. After adding 10 μL of the purified enzyme (1 U/mL) to 100 μL of a mixture of 20 mM keto acid, 20 mM (S)-α-methylbenzylamine and 50 mM potassium phosphate (pH 7.0), reaction was conducted at 37° C. for 10 minutes and the amount of produced acetophenone (deaminated ketone of (S)-α-methylbenzylamine) was measured. The result was compared with that of the ω-transaminase derived from Ochrobactrum anthropi. The result is shown in [Table 7].

[8] = test system: ω-transaminase derived from Ochrobactrum anthropi; assay: Substrate specificity of purified ω-transaminase for keto acids in initial stage of reaction, OawTA; type: biochemical; design: unit not given here; settings: 20 mM keto acid, 20 mM (S)-α-methylbenzylamine, pH 7.0, 37° C., 10 minutes
Experimental: as §3

[9] = biological target: T1, branched-chain transaminase; assay: Substrate specificity of branched-chain transaminase for amino acids, enzyme-containing crude extract; type: biochemical, E. coli; settings: 20 mM L-amino acid, pH 7.0, 37° C., 30 minutes
Experimental: Reaction was conducted using the crude extract containing the branched-chain transaminase obtained in Example 3 and using various L-amino acids and keto acids described in [Table 1] as substrates. After adding 20 μL of the crude extract to 200 μL of a mixture of 20 mM L-amino acid, 20 mM keto acid and 50 mM potassium phosphate (pH 7.0), reaction was conducted at 37° C. for 30 minutes and the amount of produced L-amino acid was measured. The result is shown in [Table 1].

[10] = biological target: T1, branched-chain transaminase; assay: Substrate specificity of branched-chain transaminase for amino acids with trimethylpyruvate, crude extract; type: biochemical, E. coli; settings: 20 mM trimethylpyruvate, 20 mM L-amino acid, pH 7.0, 37° C., 2 hours
Experimental: Reaction was conducted using the crude extract containing the branched-chain transaminase obtained in Example 3 and using various trimethylpyruvate (keto acid of L-tert-leucine) as substrates. After adding 100 μL of the crude extract to 200 μL of a mixture of 20 mM trimethylpyruvate, 20 mM L-amino acid and 50 mM potassium phosphate (pH 7.0), reaction was conducted at 37° C. for 2 hours and the amount of produced L-tert-leucine was measured. The result is shown in [Table 2].

[11] = 20 mM α-ketoglutarate as keto acid

With `CCCC[C@H](N)C(=O)O` [L-Norleucine] the “Concentration of L-tert-leucine” value [1] was 5.90 mM and 5.48 mM and 5.55 mM, the “Concentration of L-glycine, PdwTA” value [2] was 13.41 mM and 12.97 mM and 12.59 mM and the “Concentration of L-glycine, OawTA” value [3] was 0.28 mM.
With `CCC[C@H](N)C(=O)O` [L-Norvaline] the “Concentration of L-tert-leucine” value [1] was 6.31 mM and 5.34 mM and 6.06 mM, the “Concentration of L-glycine, PdwTA” value [2] was 13.43 mM and 14.29 mM and 14.12 mM and the “Concentration of L-glycine, OawTA” value [3] was 0.36 mM.
In the case of `CC(C)C(=O)C(=O)O` [3-Methyl-2-oxobutyrate], the “Concentration of 2-oxobutyrate” value [4] is reported as 11.93 mM, the “Concentration of acetophenone, OawTA” value [5] is reported as 0.00 mM and the “Concentration of acetophenone, PdwTA” value [6] is reported as 0.00 mM.
With `O=C(O)C(=O)CS` [Mercaptopyruvate] the “amount of produced acetophenone, PdwTA” value [7] was 0.008 and the “amount of produced acetophenone, OawTA” value [8] was 0.012.
`CC(C)(C)[C@H](N)C(=O)O` [L-tert-Leucine] was tested, and the “Production amount of L-amino acid” value [9, 11] was 0.06 mM.
In the case of `O=C(O)C(=O)CF` [Fluoropyruvate], the “amount of produced acetophenone, PdwTA” value [7] is reported as 0.339 and the “amount of produced acetophenone, OawTA” value [8] is reported as 0.554.
With `O=CC(=O)O` [Gyloxylate] the “amount of produced acetophenone, PdwTA” value [7] was 1.076 and the “amount of produced acetophenone, OawTA” value [8] was 1.733.
`CC(C)C[C@H](N)C(=O)O` [L-Leucine] was tested, and the “Concentration of L-tert-leucine” value [1] was 6.71 mM and 6.32 mM and 7.06 mM, the “Concentration of L-glycine, PdwTA” value [2] was 7.93 mM and 7.95 mM and 5.71 mM and the “Concentration of L-glycine, OawTA” value [3] was 0.00 mM.
For `C[C@H](N)C(=O)O` [L-Alanine], the “Production amount of L-tert-leucine” value [10] was 0.8 mM, the “Concentration of L-tert-leucine” value [1] was 2.24 mM and 2.07 mM and 2.23 mM and the “Concentration of L-glycine, PdwTA” value [2] was 13.92 mM and 13.31 mM and 11.61 mM. The “Concentration of L-glycine, OawTA” value [3] was 11.73 mM.
With `CC(C)[C@H](N)C(=O)O` [L-Valine] the “Production amount of L-tert-leucine” value [10] was 7.8 mM, the “Concentration of L-tert-leucine” value [1] was 6.31 mM and 5.04 mM and 6.23 mM and the “Concentration of L-glycine, PdwTA” value [2] was 0.18 mM and 0.20 mM and 0.17 mM. For the same compound, the “Production amount of L-amino acid” value [9, 11] was 1.6 mM and the “Concentration of L-glycine, OawTA” value [3] was 0.00 mM.
For `CCCCC(=O)C(=O)O` [2-Oxohexanoic acid], the “amount of produced acetophenone, PdwTA” value [7] was 0.713, the “Concentration of acetophenone, OawTA” value [5] was 3.07 mM and the “amount of produced acetophenone, OawTA” value [8] was 0.006. For the same compound, the “Concentration of acetophenone, PdwTA” value [6] was 5.22 mM.
With `CCCC(=O)C(=O)O` [2-Oxopentanoic acid] the “amount of produced acetophenone, PdwTA” value [7] was 1.332, the “Concentration of acetophenone, OawTA” value [5] was 3.45 mM and the “amount of produced acetophenone, OawTA” value [8] was 0.378. The “Concentration of acetophenone, PdwTA” value [6] was 5.24 mM.
With `O=C(O)C(=O)CO` [β-Hydroxypyruvate] the “amount of produced acetophenone, PdwTA” value [7] was 0.066 and the “amount of produced acetophenone, OawTA” value [8] was 0.183.
`CCC(=O)C(=O)O` [2-Oxobutyrate] was tested, and the “amount of produced acetophenone, PdwTA” value [7] was 0.821, the “Concentration of acetophenone, OawTA” value [5] was 5.05 mM and the “amount of produced acetophenone, OawTA” value [8] was 0.173. The “Concentration of acetophenone, PdwTA” value [6] was 5.03 mM.
`CC[C@H](C)[C@H](N)C(=O)O` [L-Isoleucine] was tested, and the “Production amount of L-tert-leucine” value [10] was 9.2 mM, the “Concentration of L-tert-leucine” value [1] was 7.79 mM and 7.48 mM and 6.51 mM and the “Concentration of L-glycine, PdwTA” value [2] was 0.00 mM. The “Production amount of L-amino acid” value [9, 11] was 2.6 mM and the “Concentration of L-glycine, OawTA” value [3] was 0.00 mM.
With `N[C@@H](CCC(=O)O)C(=O)O` [L-Glutamate] the “Production amount of L-tert-leucine” value [10] was 6.4 mM and the “Production amount of L-amino acid” value ([9]; 20 mM 2-oxobutyrate as keto acid) was 4.2 mM.
In the case of `CC(C)CC(=O)C(=O)O` [4-Methyl-2-oxopentanoic acid], the “Concentration of 2-oxobutyrate” value [4] is reported as 7.27 mM, the “amount of produced acetophenone, PdwTA” value [7] is reported as 0.175 and the “Concentration of acetophenone, OawTA” value [5] is reported as 0.03 mM. For the same compound, the “amount of produced acetophenone, OawTA” value [8] was 0.005 and the “Concentration of acetophenone, PdwTA” value [6] was 4.99 mM.
`CC(C)(C)C(=O)C(=O)O` [Trimethylpyruvate] was tested, and the “Concentration of 2-oxobutyrate” value [4] was 5.83 mM and the “equilibrium constant of the reaction by the branched-chain transaminase” value ([4]; trimethylpyruvate and L-homoalanine as substrates) was 0.16.
With `O=C(O)C(=O)C12CC3CC(CC(O)(C3)C1)C2` [2-(3-Hydroxy-1-adamantyl)-2-oxoethanoic acid] the “Concentration of 2-oxobutyrate” value [4] was 5.47 mM.
With `CC[C@H](N)C(=O)O` [L-Homoalanine] the “Production amount of L-tert-leucine” value [10] was 7.2 mM, the “Concentration of L-tert-leucine” value [1] was 5.57 mM and 4.43 mM and 5.71 mM and the “Concentration of L-glycine, PdwTA” value [2] was 12.56 mM and 13.31 mM and 11.26 mM. The “Production amount of L-amino acid” value [9, 11] was 0.1 mM and the “Concentration of L-glycine, OawTA” value [3] was 4.97 mM.
`CCC(C)C(=O)C(=O)O` (centres unmarked) [3-Methyl-2-oxoxpentanoic acid] was tested, and the “Concentration of 2-oxobutyrate” value [4] was 8.49 mM, the “Concentration of acetophenone, OawTA” value [5] was 0.00 mM and the “Concentration of acetophenone, PdwTA” value [6] was 0.00 mM.
